pIC50: −log10 of the molar value.
Target: T1, α4β1 integrin (Homo sapiens, UniProt P05556+P13612)
T1 construct: Ramos cells fluorescently labeled with calcein; endogenous in cells; host or cells: Ramos cells
Test: Inhibition of adhesion of calcein-labeled Ramos cells to CS1 (fibronectin) peptide-conjugated ovalbumin
Assay type: cell-based
Conditions: Table 1; for inhibition at 100 µM: Ramos, compound at a concentration of 100 μM, read-out: % A (percent inhibition of cell adhesion); for pIC50: dose required to give 50% inhibition, Ramos cell adhesion to CS1-ovalbumin, 30 minutes at 37° C
Procedure: The ability of compounds of the present invention to inhibit binding is described in detail hereinafter in the Examples by a procedure in which a 26-amino acid peptide containing the CS1 sequence of fibroncctin with an N-terminal Cys was coupled to maleimide activated ovalbumin. Ovalbumin and CS1 conjugated ovalbumin were coated onto 96-well polystyrene plates at 5 μg/ml in TBS (50 mM Tris, pH 7.5; 150 mM NaCl) at 4° C. for 16 hours. The plates were washed three times with TBS and blocked with TBS containing 3% BSA at room temperature for 4 hours. Blocked plates were washed three times in binding buffer (TBS; 1 mM MgCl2; 1 mM CaCl2; 1 mM MnCl2) prior to assay. Ramos cells fluorescently labeled with calcein AMC-3099 were resuspended in binding buffer (10^7 cells/ml) and diluted 1:2 with same buffer with or without compound. The cells were added immediately to the wells (2.5×10^5 cells/well) and incubated for 30 minutes at 37° C. Following three washes with binding buffer, adherent cells were lysed and quantitated using a fluorometer.
IC50 is defined as the dose required to give 50% inhibition. The lower the IC50 value and the greater the percentage of inhibition, the more efficient the compound is at prevention of cell adhesion. A stands for inhibition in Table 1, and the percent inhibition indicates the inhibition of cell adhesion when compound is included in the assay at a concentration of 100 μM.

T1 sequence (P13612 34-1032): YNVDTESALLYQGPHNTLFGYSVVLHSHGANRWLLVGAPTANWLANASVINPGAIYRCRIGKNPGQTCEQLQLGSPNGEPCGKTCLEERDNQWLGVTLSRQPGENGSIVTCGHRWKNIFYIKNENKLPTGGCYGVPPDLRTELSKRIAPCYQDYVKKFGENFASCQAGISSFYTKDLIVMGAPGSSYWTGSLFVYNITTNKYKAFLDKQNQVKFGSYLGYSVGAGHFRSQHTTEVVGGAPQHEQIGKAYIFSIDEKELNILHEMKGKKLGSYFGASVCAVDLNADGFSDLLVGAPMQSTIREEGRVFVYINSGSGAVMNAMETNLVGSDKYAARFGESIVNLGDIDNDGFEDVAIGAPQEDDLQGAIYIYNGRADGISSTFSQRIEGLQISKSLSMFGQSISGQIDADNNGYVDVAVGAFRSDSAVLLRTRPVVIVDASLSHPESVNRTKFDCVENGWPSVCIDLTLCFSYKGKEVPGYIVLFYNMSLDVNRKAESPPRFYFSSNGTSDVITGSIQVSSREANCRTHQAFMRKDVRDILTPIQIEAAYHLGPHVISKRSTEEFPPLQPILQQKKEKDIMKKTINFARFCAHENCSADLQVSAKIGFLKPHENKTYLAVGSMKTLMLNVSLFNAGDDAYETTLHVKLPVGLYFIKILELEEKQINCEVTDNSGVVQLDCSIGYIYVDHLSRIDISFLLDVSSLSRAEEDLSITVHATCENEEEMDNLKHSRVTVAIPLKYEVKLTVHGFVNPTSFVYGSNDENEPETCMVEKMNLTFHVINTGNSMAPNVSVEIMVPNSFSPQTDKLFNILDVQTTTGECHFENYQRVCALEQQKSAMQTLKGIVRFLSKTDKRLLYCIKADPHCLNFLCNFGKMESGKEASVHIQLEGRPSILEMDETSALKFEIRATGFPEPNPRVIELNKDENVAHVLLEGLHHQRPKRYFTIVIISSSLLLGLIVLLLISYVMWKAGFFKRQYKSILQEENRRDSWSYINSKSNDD
T1 sequence (P05556 21-798): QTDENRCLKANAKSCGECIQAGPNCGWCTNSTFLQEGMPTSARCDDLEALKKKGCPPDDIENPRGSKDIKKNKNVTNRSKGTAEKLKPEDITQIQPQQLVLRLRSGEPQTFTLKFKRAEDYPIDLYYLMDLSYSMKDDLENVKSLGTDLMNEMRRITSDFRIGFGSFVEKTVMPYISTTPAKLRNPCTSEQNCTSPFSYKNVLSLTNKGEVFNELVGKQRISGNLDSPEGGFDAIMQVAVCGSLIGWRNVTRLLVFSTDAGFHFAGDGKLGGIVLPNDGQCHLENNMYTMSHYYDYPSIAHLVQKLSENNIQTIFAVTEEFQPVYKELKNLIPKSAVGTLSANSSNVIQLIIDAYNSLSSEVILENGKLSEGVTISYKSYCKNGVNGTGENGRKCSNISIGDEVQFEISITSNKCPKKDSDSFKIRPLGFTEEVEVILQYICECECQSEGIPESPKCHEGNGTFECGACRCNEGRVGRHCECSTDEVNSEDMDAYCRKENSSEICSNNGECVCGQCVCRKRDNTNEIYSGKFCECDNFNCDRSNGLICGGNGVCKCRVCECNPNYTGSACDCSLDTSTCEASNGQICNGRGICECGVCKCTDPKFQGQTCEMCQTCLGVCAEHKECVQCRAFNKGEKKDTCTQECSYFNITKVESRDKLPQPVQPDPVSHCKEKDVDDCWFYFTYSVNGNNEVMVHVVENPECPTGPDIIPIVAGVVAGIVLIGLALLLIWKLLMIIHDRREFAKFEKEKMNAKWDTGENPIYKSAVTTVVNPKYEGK

Compound | inhibition at 100 µM [%] | pIC50
O=C(O)C[C@H](NC(=O)O[C@H](COCc1ccccc1)CSCc1ccccc1)c1ccc2c(c1)OCO2 [(3S)-3-(1,3-benzodioxol-5-yl)-3-{[({(1R)-2-(benzyloxy)-1-[(benzylthio)methyl]ethyl}oxy)carbonyl]amino}propanoic acid] | 100 | 5.00
O=C(O)C[C@H](NC(=O)N[C@@H](CCCCNC(=O)OCc1ccccc1)C(=O)NCCc1ccccn1)c1ccc2c(c1)OCO2 [(9S,13S)-13-(1,3-benzodioxol-5-yl)-3,11-dioxo-1-phenyl-9-({[2-(2-pyridinyl)ethyl]amino}carbonyl)-2-oxa-4,10,12-triazapentadecan-15-oic acid] | 100 | 5.70
Cc1ccccc1NC(=O)Nc1ccc(CNC(=O)[C@H](CC(C)C)NC(=O)NC(CC(=O)O)c2ccc3c(c2)OCO3)cc1 (stereo partly drawn) [3-(1,3-benzodioxol-5-yl)-3-{[({(1S)-3-methyl-1-[({4-[(2-toluidinocarbonyl)amino]benzyl}amino)carbonyl]butyl}amino)carbonyl]amino}propanoic acid] | 100 | 7.70
COC(=O)NCCCC[C@@H](CS(=O)(=O)c1ccccc1)NC(=O)N[C@@H](CC(=O)O)c1ccc2c(c1)OCO2 [(9S,13S)-13-(1,3-benzodioxol-5-yl)-3,11-dioxo-9-[(phenylsulfonyl)methyl]-2-oxa-4,10,12-triazapentadecan-15-oic acid] | 20 | < 4.00
CSCC[C@@H](CSc1ccccc1)NC(=O)NCCC(=O)O [3-{[({(1S)-3-(methylsulfanyl)-1-[(phenylsulfanyl)methyl]propyl}amino)carbonyl]amino}propanoic acid] | 96 | 4.60
O=C(O)CSC[C@@H](CSc1ccccc1)NC(=O)N[C@@H](CC(=O)O)c1ccc2c(c1)OCO2 [(3S)-3-(1,3-benzodioxol-5-yl)-3-{[({(1S)-2-[(carboxymethyl)sulfanyl]-1-[(phenylsulfanyl)methyl]ethyl}amino)carbonyl]amino}propanoic acid] | 100 | 5.70
CSCC[C@@H](CSc1ccc(NS(=O)(=O)c2ccc(C)cc2)cc1)NC(=O)N[C@@H](CC(=O)O)c1ccc2c(c1)OCO2 [(3S)-3-(1,3-benzodioxol-5-yl)-3-[({[(1S)-1-{[(4-{[(4-methylphenyl)sulfonyl]amino}phenyl)sulfanyl]methyl}-3-(methylsulfanyl)propyl]amino}carbonyl)amino]propanoic acid] | 100 | 6.40
COC(=O)NCCCC[C@H](NC(=O)N[C@@H](CC(=O)O)c1ccc2c(c1)OCO2)C(=O)NCC1CCNCC1 [(9S,13S)-13-(1,3-benzodioxol-5-yl)-3,11-dioxo-9-{[(4-piperidinylmethyl)amino]carbonyl}-2-oxa-4,10,12-triazapentadecan-15-oic acid] | 97 | 5.30
Cc1ccccc1NC(=O)Nc1ccc(CNC(=O)[C@H](CCCCNC(=O)OCc2ccccc2)NC(=O)N[C@@H](CC(=O)O)c2ccc3c(c2)OCO3)cc1 [(9S,13S)-13-(1,3-benzodioxol-5-yl)-3,11-dioxo-1-phenyl-9-[({4-[(2-toluidinocarbonyl)amino]benzyl}amino)carbonyl]-2-oxa-4,10,12-triazapentadecan-15-oic acid] | 100 | 9.52
O=C(O)C[C@H](NC(=O)N[C@@H](COCc1ccccc1)CSc1ccccc1)c1ccc2c(c1)OCO2 [(3S)-3-(1,3-benzodioxol-5-yl)-3-{[({(1S)-2-(benzyloxy)-1-[(phenylthio)methyl]ethyl}amino)carbonyl]amino}propanoic acid] | 100 | 6.52
CC(C)[C@H](CSCc1ccccc1)NC(=O)NC(CC(=O)O)c1ccc2c(c1)OCO2 (stereo partly drawn) [3-(1,3-benzodioxol-5-yl)-3-{[({(1R)-1-[(benzylsulfanyl)methyl]-2-methylpropyl}amino)carbonyl]amino}propanoic acid] | 83 | 4.40
O=C(O)C[C@H](NC(=O)N[C@@H](CC(=O)O)c1ccc2c(c1)OCO2)c1ccc2c(c1)OCO2 [N,N'-bis[(1S)-1-(1,3-benzodioxol-5-yl)-2-carboxyethyl]urea] | 99 | 5.15
CSCC[C@@H](CSc1ccccc1)NC(=O)N[C@H](CSC)CC(=O)O [(3S)-4-(methylsulfanyl)-3-{[({(1S)-3-(methylsulfanyl)-1-[(phenylsulfanyl)methyl]propyl}amino)carbonyl]amino}butanoic acid] | 99 | 5.10
CSCC[C@@H](CSc1cccc(NC(=O)Nc2ccccc2C)c1)NC(=O)N[C@@H](CC(=O)O)c1ccc2c(c1)OCO2 [(3S)-3-(1,3-benzodioxol-5-yl)-3-{[({(1S)-3-(methylsulfanyl)-1-[({3-[(2-toluidinocarbonyl)amino]phenyl}sulfanyl)methyl]propyl}amino)carbonyl]amino}propanoic acid] | 100 | 8.70
CC(C)[C@@H](CSCCCc1ccccc1)NC(=O)N[C@@H](CC(=O)O)c1ccc2c(c1)OCO2 [(3S)-3-(1,3-benzodioxol-5-yl)-3-({[((1S)-2-methyl-1-{[(3-phenylpropyl)sulfanyl]methyl}propyl)amino]carbonyl}amino)propanoic acid] | 99 | 4.70
COC(=O)NCCCC[C@H](NC(=O)N[C@@H](CC(=O)O)c1ccc2c(c1)OCO2)C(=O)NCc1ccc(OC)c(O)c1 [(9S,13S)-13-(1,3-benzodioxol-5-yl)-9-{[(3-hydroxy-4-methoxybenzyl)amino]carbonyl}-3,11-dioxo-2-oxa-4,10,12-triazapentadecan-15-oic acid] | 100 | 6.70
C[C@@H](CSc1ccccc1)NC(=O)N[C@@H](CC(=O)O)c1ccc2c(c1)OCO2 [(3S)-3-(1,3-benzodioxol-5-yl)-3-[({[(1S)-1-methyl-2-(phenylsulfanyl)ethyl]amino}carbonyl)amino]propanoic acid] | 100 | 5.52
O=C(O)C[C@H](NC(=O)N[C@@H](CSCCCc1ccccc1)CSc1ccccc1)c1ccc2c(c1)OCO2 [(3S)-3-(1,3-benzodioxol-5-yl)-3-{[({(1S)-2-[(3-phenylpropyl)sulfanyl]-1-[(phenylsulfanyl)methyl]ethyl}amino)carbonyl]amino}propanoic acid] | 100 | 5.70
O=C(O)C[C@H](NC(=O)N[C@H](COCc1ccccc1)CSCc1ccccc1)c1ccc2c(c1)OCO2 [(3S)-3-(1,3-benzodioxol-5-yl)-3-{[({(1R)-2-(benzyloxy)-1-[(benzylthio)methyl]ethyl}amino)carbonyl]amino}propanoic acid] | 100 | 6.00
CSCC[C@@H](CSc1ccc(NCc2ccccc2C)cc1)NC(=O)N[C@@H](CC(=O)O)c1ccc2c(c1)OCO2 [(3S)-3-(1,3-benzodioxol-5-yl)-3-[({[(1S)-1-[({4-[(2-methylbenzyl)amino]phenyl}thio)methyl]-3-(methylthio)propyl]amino}carbonyl)amino]propanoic acid] | 93 | 5.70
CC(C)[C@@H](CSCc1ccccc1)NC(=O)NC(CC(=O)O)c1ccc2c(c1)OCO2 (stereo partly drawn) [3-(1,3-benzodioxol-5-yl)-3-{[({(1S)-1-[(benzylsulfanyl)methyl]-2-methylpropyl}amino)carbonyl]amino}propanoic acid] | 100 | 5.00

Source: patent publication US6262084A, “Compounds that inhibit the binding of integrins to their receptors” (Texas Biotechnology Corporation, priority 1999, dated 2001)
